The test system of assay [1] is THP-1. In words: Cytotoxicity against human THP1 cells assessed as growth inhibition at 50 uM after 48 hrs by sulforhodamine B assay relative to control. Format: functional. The conditions noted are these: THP-1, 48 h, read-out: GI.
Assay [2] concerns COLO 205. In words: Cytotoxicity against human COLO205 cells assessed as growth inhibition after 48 hrs by sulforhodamine B assay. It counts as functional, cell-based. The conditions noted are these: COLO 205, 48 h.
Assay [3] can be described thus: Cytotoxicity against human MIAPaCa2 cells assessed as growth inhibition at 50 uM after 48 hrs by sulforhodamine B assay relative to control. Format: functional. The conditions noted are these: MIA PaCa-2, 48 h, read-out: GI.
In assay [4] the test system is HCT-116. Nature of the assay: Cytotoxicity against human HCT116 cells assessed as growth inhibition after 48 hrs by sulforhodamine B assay. It counts as functional, cell-based. The conditions noted are these: HCT-116, 48 h.
Assay [5] concerns THP-1. In words: Cytotoxicity against human THP1 cells assessed as growth inhibition after 48 hrs by sulforhodamine B assay. To be noted: THP-1, 48 h. Format: functional, cell-based.
Assay [6] deals with COLO 205. In words: Cytotoxicity against human COLO205 cells assessed as growth inhibition at 50 uM after 48 hrs by sulforhodamine B assay relative to control. Format: functional. To be noted: COLO 205, 48 h, read-out: GI.
Another assay relates to A549. Nature of the assay: Cytotoxicity against human A549 cells assessed as growth inhibition at 50 uM after 48 hrs by sulforhodamine B assay relative to control. Format: functional. To be noted: A549, 48 h, read-out: GI.
A further assay has as its system HeLa. Nature of the assay: Cytotoxicity against human HeLa cells assessed as growth inhibition at 50 uM after 48 hrs by sulforhodamine B assay relative to control. It counts as functional. To be noted: read-out: GI.
Assay [7] concerns PC-3. Nature of the assay: Cytotoxicity against human PC3 cells assessed as growth inhibition after 48 hrs by sulforhodamine B assay. Format: functional, cell-based. To be noted: PC-3, 48 h.
Assay [8] relates to HCT-116. Nature of the assay: Cytotoxicity against human HCT116 cells assessed as growth inhibition at 50 uM after 48 hrs by sulforhodamine B assay relative to control. The conditions noted are these: HCT-116, 48 h, read-out: GI. It counts as functional.
In another assay the test system is CAKI-1. In words: Cytotoxicity against human Caki1 cells assessed as growth inhibition at 50 uM after 48 hrs by sulforhodamine B assay relative to control. The conditions noted are these: CAKI-1, 48 h, read-out: GI. Format: functional.
The test system of assay [9] is PC-3. Nature of the assay: Cytotoxicity against human PC3 cells assessed as growth inhibition at 50 uM after 48 hrs by sulforhodamine B assay relative to control. It counts as functional. The conditions noted are these: PC-3, 48 h, read-out: GI.
Another assay has as its target Tubulin. In words: Inhibition of tubulin (unknown origin) polymerization after 1 hr by ELISA plate reader analysis. Format: protein-complex assay, Homo sapiens.
Assay [10] relates to HCT-116. In words: Disruption of microtubule organization in human HCT116 cells at 5 uM after 48 hrs by DAPI staining-based laser scanning confocal microscopic analysis. Format: cell-based.

Calls of active or inactive are those of the source. The calls are words filed in the database; no cut-off is given here.

On to `COc1cc(/C=C/C(=O)/C=C/c2ccccc2)ccc1OCc1cn(CCN2C(=O)C(=O)c3ccccc32)nn1`, for which the inhibition of growth at 50 µM was found to be 66% with THP-1 [1]; 20% in [3]; 64% in the assay on COLO 205 [6]; 10% in the assay on A549; 12% in the assay with HeLa; 71% in the assay with HCT-116 [8]. For the same compound, the inhibition of growth at 50 µM came to 15% with CAKI-1 and 60% with PC-3 [9]. The 50% inhibitory concentration (IC50) with COLO 205 [2] came to 8.28 µM; in the assay with HCT-116 [4], 5.16 µM; in the assay on THP-1 [5], 7.64 µM; in the assay on PC-3 [7], 9.56 µM.
With `COc1ccc(/C=C/C(=O)/C=C/c2ccc(OCc3cn(CCN4C(=O)C(=O)c5ccccc54)nn3)c(OC)c2)cc1OC`, the inhibition of growth at 50 µM with THP-1 [1] was determined as 82%; in assay [3], 21%; in the assay on COLO 205 [6], 80%; in the assay on A549 it was 19%; with HeLa it was 18%; in the assay with HCT-116 [8], 90%. Besides, the values for the inhibition of growth at 50 µM with CAKI-1 and in the assay with PC-3 [9] were 22% and 79%, respectively. For the same compound, the concentration for half-maximal inhibition (IC50) came out at 5.78 µM with COLO 205 [2]; 2.67 µM in the assay with HCT-116 [4]; 4.31 µM in the assay on THP-1 [5]; 3.97 µM on Tubulin; 7.64 µM in the assay with PC-3 [7].
For `COc1cc(/C=C/C(=O)/C=C/c2cccc3ccccc23)ccc1OCc1cn(CCN2C(=O)C(=O)c3ccccc32)nn1`, the inhibition of growth at 50 µM is 83% in the assay on THP-1 [1]; 11% in [3]; 80% in the assay with COLO 205 [6]; 10% in the assay with A549; 10% in the assay with HeLa; 89% with HCT-116 [8]. The inhibition of growth at 50 µM in the assay with CAKI-1 is 14%; with PC-3 [9], 77%. Moreover, the IC50 was determined as 7.99 µM in the assay on COLO 205 [2]; 4.79 µM in the assay on HCT-116 [4]; 6.15 µM with THP-1 [5]; 7.16 µM against Tubulin; 8.54 µM with PC-3 [7].
`COc1ccc(/C=C/C(=O)/C=C/c2ccc(OCc3cn(CCN4C(=O)C(=O)c5ccccc54)nn3)c(OC)c2)cc1`: the inhibition of growth at 50 µM in the assay on THP-1 [1] is 75%; in assay [3], 17%; with COLO 205 [6], 72%; in the assay on A549, 15%; in the assay on HeLa, 15%; in the assay with HCT-116 [8], 81%. For the same compound, the inhibition of growth at 50 µM in the assay on CAKI-1 is 20%; in the assay with PC-3 [9], 70%. Further, the IC50 with COLO 205 [2] worked out at 6.72 µM; in the assay on HCT-116 [4], 3.45 µM; in the assay on THP-1 [5] it was 4.96 µM; on Tubulin, 5.41 µM; in the assay on PC-3 [7] it was 8.95 µM.
As to `COc1cc(/C=C/C(=O)/C=C/c2cc(OC)c(OC)c(OC)c2)ccc1OCc1cn(CCN2C(=O)C(=O)c3cc(Br)ccc32)nn1`, the inhibition of growth at 50 µM in the assay with THP-1 [1] was 73%; in [3], 15%; in the assay on COLO 205 [6], 70%; in the assay with A549 it was 13%; in the assay with HeLa, 15%; with HCT-116 [8], 75%. Further, the inhibition of growth at 50 µM was 12% in the assay with CAKI-1 and 69% in the assay on PC-3 [9]. For the same compound, the IC50 in the assay on COLO 205 [2] was 5.29 µM; in the assay with HCT-116 [4], 2.92 µM; in the assay on THP-1 [5], 3.14 µM; with PC-3 [7], 6.44 µM.
In the case of `COc1cc(/C=C/C(=O)/C=C/c2cc(OC)c(OC)c(OC)c2)ccc1OCc1cn(CCN2C(=O)C(=O)c3ccccc32)nn1`, the inhibition of growth at 50 µM was 89% in the assay on THP-1 [1]; 25% in assay [3]; 86% in the assay on COLO 205 [6]; 22% in the assay on A549; 20% in the assay with HeLa; 99% with HCT-116 [8]. Moreover, the inhibition of growth at 50 µM with CAKI-1 came out at 25%; in the assay on PC-3 [9] it was 85%. Besides, the IC50 in the assay on COLO 205 [2] came to 4.15 µM; in the assay with HCT-116 [4], 1.12 µM; with THP-1 [5], 2.87 µM; at Tubulin, 2.36 µM; with PC-3 [7], 5.67 µM. Moreover, in the assay on HCT-116 [10], the result was Active.
With `COc1cc(/C=C/C(=O)/C=C/c2cc(OC)c(OC)c(OC)c2)ccc1OCc1cn(CCN2C(=O)C(=O)c3cc(Cl)ccc32)nn1`, the inhibition of growth at 50 µM with THP-1 [1] is 86%; in assay [3], 13%; with COLO 205 [6] it was 84%; with A549 it was 22%; with HeLa, 15%; in the assay on HCT-116 [8], 89%. Besides, the inhibition of growth at 50 µM with CAKI-1 was 13%; in the assay on PC-3 [9], 80%. Besides, the IC50 with COLO 205 [2] amounted to 5.97 µM; in the assay with HCT-116 [4], 2.17 µM; in the assay with THP-1 [5], 4.56 µM; in the assay with PC-3 [7], 7.14 µM.

The values are drawn from ChEMBL document CHEMBL3627713, “Triazole linked mono carbonyl curcumin-isatin bifunctional hybrids as novel anti tubulin agents: Design, synthesis, biological evaluation and molecular modeling studies” (Bioorg Med Chem, 2015).
